Data set [1] has as its target T1, E. coli PdxI (Escherichia coli, UniProt P25906).
T1 sequence (P25906 1-286): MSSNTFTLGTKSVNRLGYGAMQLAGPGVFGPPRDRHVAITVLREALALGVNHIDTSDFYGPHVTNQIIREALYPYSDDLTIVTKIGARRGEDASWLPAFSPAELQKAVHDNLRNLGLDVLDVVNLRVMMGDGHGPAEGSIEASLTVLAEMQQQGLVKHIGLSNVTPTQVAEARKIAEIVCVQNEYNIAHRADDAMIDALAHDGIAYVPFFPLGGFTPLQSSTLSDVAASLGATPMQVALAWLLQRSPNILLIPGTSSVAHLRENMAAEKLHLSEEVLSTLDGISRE
The data set can be described thus: Reactions catalysed by PdxI, discontinuous assay with HPLC quantification. The data set is classed as biochemical.

Data set [2] concerns the target T1, E. coli PdxI. Nature of the data set: Differential scanning fluorimetry. Type of data set: binding. To be noted: for effect on thermal stability (Tm) when added alone: vitamers 100 μM, NAD+ or NADH 400 μM; for effect on thermal stability (Tm) when added alone / Kd: 2 μM PdxI; for increase of thermal stability: increasing concentrations of dinucleotide; for Kd: read-out: apparent dissociation constant, from changes of Tm as a function of NADP(H) concentration, 20 mM KPi pH 7.3; for further change of Tm on adding vitamer to pre-incubated PdxI and dinucleotide: 200 μM vitamer, PL added to PdxI-NAD(P)+, PN to PdxI-NAD(P)H.

The target of data set [3] is T1, E. coli PdxI. Nature of the data set: Isothermal titration calorimetry. Type of data set: binding.
Data set [4] concerns the target T1, E. coli PdxI. Nature of the data set: Spectrophotometric kinetic characterisation of PdxI. Particulars: for type of product inhibition with respect to NADPH: NADPH varied, PL fixed at 38 μM.
The subject of data set [5] is E. coli pdxK, pdxY, pdxKY knock out strains. Type of data set: cell-based, Escherichia coli. To be noted: M9 medium, all these strains.
The next data set concerns PdxK. Particulars: cited from earlier work.
Another data set has as its system E. coli BW25113 cells. Nature of the data set: RT-qPCR relative expression of vitamin B6 metabolism genes. Type of data set: cell-based, Escherichia coli. Particulars: 0.1 mM vitamer in M9, relative to M9 = 100%; for Expression level of pdxI: (*) P < 0.01.
Data set [6] concerns E. coli BW25113 pdxI knock out strain. The data set is classed as cell-based, Escherichia coli.
Data set [7] relates to E. coli BW25113 wild type. Type of data set: cell-based, Escherichia coli.
Data set [8] concerns E. coli BW25113 pdxI knock out strain. The data set is classed as cell-based, Escherichia coli. Particulars: for beneficial effect of low concentrations on growth: low concentrations in M9 medium.
The test system of data set [9] is E. coli BW25113 wild type. Nature of the data set: B6 vitamer levels in cell extracts by HPLC, wild type. Type of data set: cell-based, Escherichia coli.
In data set [10] the target is T1, E. coli PdxI. To be noted: in vitro; cited from earlier work.
[11] abbreviates: ligand alone titrated into PdxI.
[12] abbreviates: ligand alone titrated into PdxI (binary complex).
Where [13] appears, read: ligand alone titrated into PdxI, 20°C, pH 7.4, NB = non-binding ligand.
Where [14] appears, read: PL added to pre-incubated mixture of PdxI and NADPH (ternary complex).
[15] abbreviates: medium supplemented with 1.5 mM PL.
Setting [16] is: medium supplemented with 0.1 mM PN.

Several values for one entry are separate records, joined by “and”; a condition that tells them apart may be missing. Equal values may be shown once. Read-outs that look alike come from different tables or passages of the source.

With `NC(=O)C1=CN([C@@H]2O[C@H](COP(=O)(O)OP(=O)(O)OC[C@H]3O[C@@H](n4cnc5c(N)ncnc54)[C@H](O)[C@@H]3O)[C@@H](O)[C@H]2O)C=CC1` [NADH], the “reaction rate with PL and NADH relative to that with NADPH” value on E. coli PdxI [1] (200 μM PL, 400 μM dinucleotide) is 10 times slower. The “effect on thermal stability (Tm) when added alone” value (“effect on thermal stability (Tm)” below) on E. coli PdxI [2] was “no effect”.

Compound `NC(=O)C1=CN([C@@H]2O[C@H](COP(=O)(O)OP(=O)(O)OC[C@H]3O[C@@H](n4cnc5c(N)ncnc54)[C@H](OP(=O)(O)O)[C@@H]3O)[C@@H](O)[C@H]2O)C=CC1` [NADPH, reduced nicotinamide adenine dinucleotide phosphate] returned a N value on E. coli PdxI [3] (setting [11]) of 1.13 ± 0.05. On E. coli PdxI [3] (setting [12]), this compound had a ΔH of -12.40 ± 0.14 kJ/mol and a ΔS of −18 ± 1 J mol^−1/deg. Moreover, the Kd at E. coli PdxI [3] (setting [13]) came to 4.2 ± 0.35 µM. Further, on E. coli PdxI [4] (PL reduction to PN by NADPH, 37 °C, 20 mM KPi pH 7.3, 0.05 μM PdxI), the Km amounted to 12 ± 4 µM. Further, on E. coli PdxI [2], the “increase of thermal stability” value is “up to 9 °C” and the Kd is 81 ± 16 µM.

At E. coli PdxI [3] (setting [11]), `NC(=O)c1ccc[n+]([C@@H]2O[C@H](COP(=O)([O-])OP(=O)(O)OC[C@H]3O[C@@H](n4cnc5c(N)ncnc54)[C@H](OP(=O)(O)O)[C@@H]3O)[C@@H](O)[C@H]2O)c1` [NADP^+, oxidised nicotinamide adenine dinucleotide phosphate] had a N value of 0.99 ± 0.09. Besides, at E. coli PdxI [3] (setting [12]), the ΔH was -21.6 ± 0.56 kJ/mol and the ΔS is −54 ± 2 J mol^−1/deg. The compound further gave a Kd at E. coli PdxI [3] (setting [13]) of 46.3 ± 1.97 µM. Moreover, the “type of product inhibition with respect to NADPH” value at E. coli PdxI [4] is “competitive inhibitor”. Also, on E. coli PdxI [2], the “increase of thermal stability” value was “up to 9 °C” and the Kd worked out at 856 ± 490 µM.

In the case of `NC(=O)c1ccc[n+]([C@@H]2O[C@H](COP(=O)([O-])OP(=O)(O)OC[C@H]3O[C@@H](n4cnc5c(N)ncnc54)[C@H](O)[C@@H]3O)[C@@H](O)[C@H]2O)c1` [NAD^+], the “effect on thermal stability (Tm)” value on E. coli PdxI [2] was “no effect”.

On to `Cc1ncc(CO)c(C=O)c1O` [PL, pyridoxal], for which, in [5], the “concentration at which PL toxicity is observed” value was at least 1.4 mM. In addition, in the data set on PdxK (PL as substrate), the “kcat of PdxK” value was 2.3 s⁻¹. In addition, in the data set on PdxK (read-out: KM for PL of PdxK), the Km is 100 µM. The compound further showed a Kd at E. coli PdxI [3] of 0.024 ± 0.01 µM. The N value on E. coli PdxI [3] (PL added to pre-incubated 1:1 mixture of PdxI and NADPH) was 0.61 and 0.61 ± 0.02. Besides, at E. coli PdxI [3] (setting [14]), the ΔH was -3.7 ± 0.15 kJ/mol and the ΔS amounted to 22 ± 1 J mol^−1/deg. In addition, in the data set with E. coli BW25113 cells, the “Expression level of pdxB” value is reported as 97%, the “Expression level of pdxH” value is on record as 110%, the “Expression level of pdxJ” value is 86% and the “Expression level of pdxK” value is on record as 105%. Further, in the data set with E. coli BW25113 cells, the “Expression level of pdxY” value came to 118%, the “Expression level of ybhA” value was 110% and the “Expression level of pdxI” value is given as 134% (*). The “PL converted into PN at equilibrium” value on E. coli PdxI [1] (200 μM PL, 400 μM NADH, 0.2 μM PdxI) was found to be 98.3 ± 2.6%. Further, the “PL converted into PN at equilibrium” value at E. coli PdxI [1] (200 μM PL, 400 μM NADPH, 0.2 μM PdxI) amounted to 96 ± 1.7%. Also, the “increase of PL levels” value in [6] (setting [15]) is “about 3400 fold”. In [7] (up to 0.1 mM in M9 medium), the effect on growth entry was “beneficial”. Moreover, the effect on growth result in [7] (up to 1 mM in M9 medium) was “abolish this beneficial effect”. In data set [8] (1 mM in M9 medium), the “effect on bacterial growth” value is “toxicity”. Further, in [8] (2 mM in M9 medium), the “effect on bacterial growth” value was “nearly arrested”. Moreover, the “beneficial effect of low concentrations on growth” value in data set [8] is reported as “not visible”. The “increase of PL levels” value in data set [9] (setting [15]) is listed as “about 800 fold”. Moreover, at E. coli PdxI [2], the “further change of Tm on adding vitamer to pre-incubated PdxI and dinucleotide” value is “did not further increase Tm”; the “effect on thermal stability (Tm)” value is “no effect”.

Regarding `Cc1ncc(COP(=O)(O)O)c(C=O)c1O` [PLP, Pyridoxal 5’-phosphate], the Km on E. coli PdxI [4] (PLP reduction to PNP by NADPH) was over 1200 µM. At E. coli PdxI [1] (200 μM PLP, 400 μM NADPH, 0.2 μM PdxI), the “conversion of PLP into PNP” value is on record as “apparently complete”. In addition, at E. coli PdxI [10], the “activity of PdxI with the substrate” value is listed as “no detectable activity”. Moreover, on E. coli PdxI [2], the “effect on thermal stability (Tm)” value is “no effect”.

For the compound `Cc1ncc(CO)c(CN)c1O` [PM, pyridoxamine], the “conversion of PM to PL” value on E. coli PdxI [1] (NADP+ as electron acceptor) was “could not be detected”. At E. coli PdxI [10], the “activity of PdxI with the substrate” value is given as “no detectable activity”.

For `Cc1ncc(CO)c(CO)c1O` [PN, pyridoxine], in the data set with E. coli BW25113 cells, the “Expression level of pdxB” value is listed as 103%, the “Expression level of pdxH” value came to 95%, the “Expression level of pdxJ” value was found to be 88% and the “Expression level of pdxK” value is on record as 107%. In the data set on E. coli BW25113 cells, the “Expression level of pdxY” value stood at 115%, the “Expression level of ybhA” value amounted to 108% and the “Expression level of pdxI” value is recorded as 98%. In addition, on E. coli PdxI [4], the “type of product inhibition with respect to NADPH” value is listed as “mixed inhibition”. Moreover, the “PN converted to PL (reverse reaction)” value on E. coli PdxI [1] (200 μM PN, 400 μM NADP+, 1 μM PdxI) is on record as 5 ± 1.3%. Besides, in data set [6] (setting [16]), the “rise of PLP levels” value came to 1.8 fold. In addition, the effect on growth entry in data set [7] (up to 1 mM in M9 medium) was “beneficial effect”. Moreover, the “beneficial effect of low concentrations on growth” value in data set [8] is “not visible”. Further, the “rise of PLP levels” value in data set [9] (setting [16]) is on record as 1.5 fold. For the same compound, at E. coli PdxI [2], the “further change of Tm on adding vitamer to pre-incubated PdxI and dinucleotide” value was “did not further increase Tm”; the “effect on thermal stability (Tm)” value is recorded as “no effect”.
